Measurements taken from the supplement of paper PMC10627819.

Columns and labels:
S. aureus DSM 20231 = assay: Bliss interaction score (quartile over a dose matrix) (fitness difference); higher = more antagonism (negative = synergy)
Outline: (§1)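 The Bliss score is observed minus expected fitness under the product model, reported as quartiles over technical, biological and donor/recipient replicates. Fitness is the OD595 at entry into stationary phase divided by the plate's robust no-drug mean and capped at 1. Single-drug fitness was inferred from combination data.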

S. pneumoniae D39V [1] = assay: as above
Outline: as §1

S. aureus Newman = assay: as above
Outline: as §1

B. subtilis 168 = assay: as above
Outline: as §1

S. pneumoniae D39V [2] = assay: fitness (endpoint OD595 vs no drug) (fraction); higher = more growth
Outline: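 Bacterial growth was followed in 384-well plates seeded at OD595 0.01, with 30 µl per well, or 55 µl for S. pneumoniae, in TSB, LB Lennox or CY at 37 °C. OD595 was read every 30 min for 14 h, and each reading had the first reading subtracted as background. Fitness is the background-corrected optical density at entry into stationary phase divided by the robust mean of the no-drug control wells. This ratio is capped at 1.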
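Throughout, for Bliss interaction score (quartile over a dose matrix): first quartile when negative (synergy) and third quartile when positive (antagonism).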

CC[C@H]1OC(=O)[C@H](C)[C@@H](O[C@H]2C[C@@](C)(OC)[C@@H](O)[C@H](C)O2)[C@H](C)[C@@H](O[C@@H]2O[C@H](C)C[C@H](N(C)C)[C@H]2O)[C@](C)(OC)C[C@@H](C)C(=O)[C@H](C)[C@@H](O)[C@]1(C)O [Clarithromycin] + CCC[C@@H]1C[C@@H](C(=O)N[C@@H]([C@H]2O[C@H](SC)[C@H](O)[C@@H](O)[C@H]2O)[C@@H](C)O)N(C)C1 [Lincomycin]
Conditions	Bliss interaction score
B. subtilis 168	0.103
S. aureus DSM 20231	-0.12
S. aureus Newman	-0.144
S. pneumoniae D39V [1]	0.0426

fitness, S. pneumoniae D39V [2], one replicate
Conditions	first compound 0.007812 µg/mL	first compound 0.01562 µg/mL	first compound 0.03125 µg/mL
partner 0.2 µg/mL	0.614	0.678	0.559
partner 0.4 µg/mL	0.545	0.619	0.395
partner 0.8 µg/mL	0.0517	0.0966	0.0574

fitness, S. pneumoniae D39V [2]
Conditions	first compound 0.0625 µg/mL	first compound 0.07 µg/mL	first compound 0.125 µg/mL	first compound 0.14 µg/mL	first compound 0.25 µg/mL	first compound 0.28 µg/mL
partner 0.2 µg/mL	–	0.0703	–	0.063	–	0.0359
partner 0.215 µg/mL	0.656	–	0.487	–	0.328	–
partner 0.4 µg/mL	–	0.0783	–	0.0665	–	0.035
partner 0.43 µg/mL	0.599	–	0.367	–	0.262	–
partner 0.8 µg/mL	–	0.0297	–	0.0353	–	0.0359
partner 0.86 µg/mL	0.269	–	0.131	–	0.0936	–

C[C@@H](O)[C@H]1C(=O)N2C(C(=O)O)=C(SCCNC=N)C[C@H]12 [Imipenem] + CN1C2=CC=CC=C2N=C3C1=CC=CC3=O [Pyocyanin]
Conditions	Bliss interaction score
B. subtilis 168	0.0885
S. aureus DSM 20231	-0.0657
S. aureus Newman	0.0283
S. pneumoniae D39V [1]	0.0503

fitness, S. pneumoniae D39V [2], one replicate
Conditions	first compound 0.005 µg/mL	first compound 0.01 µg/mL	first compound 0.02 µg/mL
partner 0.325 µg/mL	0.945	0.947	≥ 1
partner 0.65 µg/mL	0.979	0.959	0.957

fitness, S. pneumoniae D39V [2]
Conditions	first compound 0.0065 µg/mL	first compound 0.013 µg/mL	first compound 0.026 µg/mL
partner 0.325 µg/mL	0.975	≥ 1	0.983
partner 0.65 µg/mL	0.936	0.929	0.892
partner 1.3 µg/mL	0.591	0.698	0.657

CC[C@H]1OC(=O)[C@H](C)[C@@H](O[C@H]2C[C@@](C)(OC)[C@@H](O)[C@H](C)O2)[C@H](C)[C@@H](O[C@@H]2O[C@H](C)C[C@H](N(C)C)[C@H]2O)[C@](C)(OC)C[C@@H](C)C(=O)[C@H](C)[C@@H](O)[C@]1(C)O [Clarithromycin] + O=C1CN(/N=C/c2ccc([N+](=O)[O-])o2)C(=O)N1 [Nitrofurantoin]
Conditions	Bliss interaction score
B. subtilis 168	-0.0776
S. aureus DSM 20231	-0.04
S. aureus Newman	-0.117
S. pneumoniae D39V [1]	-0.0986

fitness, S. pneumoniae D39V [2], one replicate
Conditions	first compound 0.007812 µg/mL	first compound 0.01562 µg/mL	first compound 0.03125 µg/mL	first compound 0.0625 µg/mL	first compound 0.125 µg/mL	first compound 0.25 µg/mL
partner 2 µg/mL	0.879	0.802	0.627	–	–	–
partner 4 µg/mL	0.862	0.788	0.643	–	–	–
partner 5.14 µg/mL	–	–	–	0.402	0.214	0.146
partner 8 µg/mL	0.744	0.678	0.556	–	–	–

fitness, S. pneumoniae D39V [2]
Conditions	first compound 0.0625 µg/mL	first compound 0.07 µg/mL	first compound 0.125 µg/mL	first compound 0.14 µg/mL	first compound 0.25 µg/mL	first compound 0.28 µg/mL
partner 1.285 µg/mL	0.636	–	0.263	–	0.104	–
partner 2 µg/mL	–	0.0417	–	0.0458	–	0.0401
partner 2.57 µg/mL	0.59	–	0.199	–	0.0984	–
partner 4 µg/mL	–	0.0482	–	0.0382	–	0.0171
partner 8 µg/mL	–	0.0337	–	0.0552	–	0.0141

C[C@@H](O)[C@H]1C(=O)N2C(C(=O)O)=C(SCCNC=N)C[C@H]12 [Imipenem] + Cc1cc(NS(=O)(=O)c2ccc(N)cc2)no1 [Sulfamethoxazol]
Conditions	Bliss interaction score
B. subtilis 168	0.0891
S. aureus DSM 20231	-0.0317
S. aureus Newman	-0.0488
S. pneumoniae D39V [1]	0.066

fitness, S. pneumoniae D39V [2], one replicate
Conditions	first compound 0.005 µg/mL	first compound 0.01 µg/mL	first compound 0.02 µg/mL
partner 1 µg/mL	0.993	0.998	0.959
partner 2 µg/mL	0.957	0.924	0.982
partner 4 µg/mL	0.879	0.856	0.859

fitness, S. pneumoniae D39V [2]
Conditions	first compound 0.0065 µg/mL	first compound 0.013 µg/mL	first compound 0.026 µg/mL
partner 1 µg/mL	0.96	0.923	0.82
partner 2 µg/mL	0.976	0.932	0.925
partner 4 µg/mL	0.976	0.941	0.917

CC[C@H]1OC(=O)[C@H](C)[C@@H](O[C@H]2C[C@@](C)(OC)[C@@H](O)[C@H](C)O2)[C@H](C)[C@@H](O[C@@H]2O[C@H](C)C[C@H](N(C)C)[C@H]2O)[C@](C)(OC)C[C@@H](C)C(=O)[C@H](C)[C@@H](O)[C@]1(C)O [Clarithromycin] + C[C@H]1COc2c(N3CCN(C)CC3)c(F)cc3c(=O)c(C(=O)O)cn1c23 [Levofloxacin]
Conditions	Bliss interaction score
B. subtilis 168	0.0707
S. aureus DSM 20231	0.0901
S. aureus Newman	0.0872
S. pneumoniae D39V [1]	-0.0537

fitness, S. pneumoniae D39V [2], one replicate
Conditions	first compound 0.007812 µg/mL	first compound 0.01562 µg/mL	first compound 0.03125 µg/mL
partner 0.2 µg/mL	0.782	0.811	0.599
partner 0.4 µg/mL	0.646	0.726	0.533
partner 0.8 µg/mL	0.257	0.316	0.244

S. pneumoniae D39V [2]
Conditions	fitness
first compound 0.0625 µg/mL, partner 0.1725 µg/mL	0.701
first compound 0.0625 µg/mL, partner 0.345 µg/mL	0.691
first compound 0.0625 µg/mL, partner 0.69 µg/mL	0.371
first compound 0.07 µg/mL, partner 0.2 µg/mL	0.139
first compound 0.07 µg/mL, partner 0.4 µg/mL	0.134
first compound 0.07 µg/mL, partner 0.8 µg/mL	0.0857
first compound 0.125 µg/mL, partner 0.1725 µg/mL	0.486
first compound 0.125 µg/mL, partner 0.345 µg/mL	0.463
first compound 0.125 µg/mL, partner 0.69 µg/mL	0.349
first compound 0.14 µg/mL, partner 0.2 µg/mL	0.0726
first compound 0.14 µg/mL, partner 0.4 µg/mL	0.0532
first compound 0.14 µg/mL, partner 0.8 µg/mL	0.063
first compound 0.25 µg/mL, partner 0.69 µg/mL	0.242
first compound 0.28 µg/mL, partner 0.2 µg/mL	0.0574
first compound 0.28 µg/mL, partner 0.4 µg/mL	0.0463
first compound 0.28 µg/mL, partner 0.8 µg/mL	0.0433
